From patent publication US6630310B1, “Assay for binding between carbohydrate and glycolipid” (Biopolymer Engineering Pharmaceutical, Inc., priority 1996, dated 2003)
Entries after “also recorded” stand apart in the source; their conditions may differ.

Tests used:
[1] = Specific binding of ^3H-PGG-Glucan to sphingolipids in the 96-well plate assay; set-up: ^3H-PGG-Glucan bound (specific binding): unit not given here; conditions: for ^3H-PGG-Glucan bound (specific binding): LacCer of defined fatty acid and long chain base, 96-well plate; for 3H-PGG-Glucan Bound (specific binding): sphingolipid immobilized in 96-well plate, 37° C.; for specific binding to ^3H-underivatized, aqueous soluble β(1-3)-glucan (in words): immobilized on a polystyrene 96-well plate
Protocol: Lactosyl ceramide or the sample to be measured was suspended in ethanol. Aliquots as specified were added in triplicate to the wells of a 96-well plate and air dried. The following components were premixed, then 100 μL was added to each well: saline (10 μL) or unlabelled, underivatized, aqueous soluble β(1-3)-glucan (10 μL of a 10 mg/ml stock), ^3H-underivatized, aqueous soluble β(1-3) glucan (10 μL of a 10 μg/ml stock), and HBSS (80 μL). Plates were incubated at 37° C. for 1.5 to 2 hours, then supernatants were removed from each well and discarded. Wells were rinsed with HBSS (200 μL) and SOLVABLE™ (100 μL) was added. The plate was incubated at 60° C. for 5 minutes, then supernatants were removed and counted.

[2] = system: receptor for underivatized, aqueous soluble β(1-3)-glucan on human leukocyte membranes; assay: Competition of ^3H-PGG-Glucan binding to human leukocyte membranes (oil/sucrose binding assay)
Protocol: Aminated glucan was prepared by reductive amination of curdlan and provided by Dr. Rolph Seljelid (University of Tromsφ, Tromsφ, Norway).
At the end of the incubation, 100 μl aliquots of reaction mixture were layered on top of a double layer density gradient consisting of 100 μl dibutyl phthalate (lower layer) and 100 μl 8% sucrose in PBS (upper layer) in 400 μl centrifuge tubes (Brinkman). The tubes were spun at 15,000×g for 4-5 minutes and the tips containing the membrane pellets were removed, incubated in 300 μl SOLVABLE™ (New England Nuclear, Boston, Mass.) overnight at 50° C. to dissolve the pellet, and then radioactivity determined by liquid scintillation counting. […] Alternatively, membranes were centrifuged directly in their incubation tubes at 15,000×g for 4-5 minutes at 37° C., the pellet washed with HBSS, then pellets solubilized and radioactivity determined by liquid scintillation counting.

[3] = Competition of ^3H-PGG-Glucan binding to lactosyl ceramide in 96-well plate assay (FIGS. 14, 15); set-up: species or system bovine; conditions: FIGS. 14 and 15
Source text: FIG. 14 is a graph of the comparison of underivatized, aqueous soluble β(1-3)-glucan and single helix competition of ^3H-underivatized, aqueous soluble β(1-3)-glucan binding in three assay formats. Underivatized, aqueous soluble β(1-3)-glucan or single helix glucan was used at designated concentrations to compete for ^3H-underivatized, aqueous soluble β(1-3)-glucan binding to lactosyl ceramide (LacCer) in a 96-well plate (triangles), or to lactosyl ceramide in reconstituted membranes (squares), or to human leukocyte membranes (circles). Open symbols represent underivatized, aqueous soluble β(1-3) glucan, and closed symbols represent single helix. Maximum competition was assigned at the highest concentration of underivatized, aqueous soluble β(1-3)-glucan used as competitor in each type of assay.
FIG. 15 is a graphic illustration of data showing that underivatized, aqueous soluble β(1-3) glucan and high molecular weight underivatized, aqueous soluble β(1-3) glucan (Network) compete more effectively for ^3H-underivatized, aqueous soluble β(1-3)-glucan binding to lactosyl ceramide in a 96-well plate assay than do single helix or laminarin. […]
Lactosyl ceramide or the sample to be measured was suspended in ethanol. […] The plate was incubated at 60° C. for 5 minutes, then supernatants were removed and counted.

[4] = system: human leukocyte membranes; assay: ^3H-PGG-Glucan binding to pretreated human leukocyte membranes; conditions: for effect of detergent pretreatment of membranes on specific binding (in words): membranes pretreated 5 minutes on ice (CHAPS 0.25%) (FIG. 9)
Protocol: Human leukocyte membranes were incubated in HBSS with or without 0.25% CHAPS for 5 minutes on ice, followed by centrifugation at 180,000×g, 4° C. for 45 minutes. Pellets were used in a binding assay with underivatized, aqueous soluble β(1-3)-glucan or dextran (avg. MW 71,000, Sigma Chemical Co., MO) as indicated at 1 mg/ml final concentration.
Human leukocyte membranes (500 μg protein) were incubated with sodium periodate at concentrations indicated in FIG. 12 (10 and 100 mM) for 30 minutes at room temperature, then centrifuged at 12,000×g for 10 minutes, rinsed and used in a binding assay (non-oil/sucrose; see FIG. 12). Protein-depleted membranes (derived from 1.87 mg human leukocyte membrane protein) were incubated in 0.1 M sodium periodate and treated as described above (FIG. 13).
An alternative procedure to that using the oil/sucrose gradient involved centrifuging 100 μl aliquots of the binding assay in microfuge tubes at 12,000×g, for five minutes, followed by rinsing the resultant pellet with HBSS. Pellets were then dissolved in SOLVABLE™ and radioactively determined as above.

[5] = addition at 0.1 mg/ml, ^3H-PGG-Glucan binding to human leukocyte membranes

CCCCCCCCCCCCCCCCCC(=O)NC(CO[C@@H]1O[C@H](CO)[C@@H](O[C@@H]2O[C@H](CO)[C@H](O)[C@H](O)[C@H]2O)[C@H](O)[C@H]1O)C(O)CCCCCCCCCCCCCCC (mixture of isomers) [N-Stearoyl-DL-dihydrolacto-cerebroside]
^3H-PGG-Glucan bound (specific binding) [1]: 0.00

OC[C@H]1O[C@@H](O[C@@H]2[C@@H](O)[C@H](O[C@@H]3[C@@H](O)[C@H](O[C@@H]4[C@@H](O)[C@H](O[C@@H]5[C@@H](O)[C@H](O[C@@H]6[C@@H](O)[C@H](O[C@@H]7[C@@H](O)[C@H](O)O[C@H](CO)[C@H]7O)O[C@H](CO)[C@H]6O)O[C@H](CO)[C@H]5O)O[C@H](CO)[C@H]4O)O[C@H](CO)[C@H]3O)O[C@H](CO)[C@H]2O)[C@H](O)[C@@H](O)[C@@H]1O [laminariheptose]
inhibition of radioactively labeled underivatized, aqueous soluble β(1-3)-glucan binding to human leukocyte membranes (in words) [2]: no effect

CCCCCCCCCCCCC/C=C/[C@@H](O)[C@@H](N)CO [Sphingosine]
3H-PGG-Glucan Bound (specific binding) [1]: 0.02 ± 0.00 ng/μg sphingolipid

CCCCCCCCCCCCCCCC(=O)NC(CO[C@@H]1O[C@H](CO)[C@@H](O[C@@H]2O[C@H](CO)[C@H](O)[C@H](O)[C@H]2O)[C@H](O)[C@H]1O)C(O)CCCCCCCCCCCCCCC (mixture of isomers) [N-Palmitoyl-DL-dihydrolacto-cerebroside]
^3H-PGG-Glucan bound (specific binding) [1]: 0.00

Dextran
% Control Binding ([2]; addition at 1 mg/ml): 88%

CCCCCCCCCCCCCC=CC(O)C(COC1OC(CO)C(OC2OC(CO)C(O)C(O)C2O)C(O)C1O)NC(=O)CCCCCCCCCCCCCCCCCCCCC (stereo not drawn) [LacCer (HLM) C22:0]
^3H-PGG-Glucan bound (specific binding) [1]: 3.57

Laminarin
inhibition of radioactively labeled underivatized, aqueous soluble β(1-3)-glucan binding to human leukocyte membranes (in words) [2]: do not inhibit; also recorded: not inhibited | % Control Binding ([2]; addition at 1 mg/ml): 83% | competition for ^3H-underivatized, aqueous soluble β(1-3)-glucan binding to LacCer in the 96-well plate assay (in words) [3]: does not compete efficiently

CCCCCCCCCCCCC/C=C/[C@@H](O)[C@H](CO[C@@H]1O[C@H](CO)[C@@H](O[C@@H]2O[C@H](CO)[C@H](O)[C@H](O)[C@H]2O)[C@H](O)[C@H]1O)NC(=O)CCCCCCCCCCCCCCCCC [LacCer (HLM) C18:0]
^3H-PGG-Glucan bound (specific binding) [1]: 1.93

Sulfatides
3H-PGG-Glucan Bound (specific binding) [1]: 0.00 ± 0.01 ng/μg sphingolipid

Globoside
3H-PGG-Glucan Bound (specific binding) [1]: 0.00 ± 0.01 ng/μg sphingolipid

galactosyl ceramides
specific binding to ^3H-underivatized, aqueous soluble β(1-3)-glucan (in words) [1]: significant specific binding

Lipopolysaccharide
% Control Binding [2, 5]: 89%

CCCCCCCCO[C@@H]1O[C@H](CO)[C@@H](O)[C@H](O)[C@H]1O [octylglucoside]
effect of detergent pretreatment of membranes on specific binding (in words) [4]: enhancement of specific binding

[Na+].[O-][I+3]([O-])([O-])[O-] [sodium periodate]
effect of sodium periodate treatment of membranes on binding activity (in words) ([4]; 10 and 100 mM, 30 minutes at room temperature (FIGS. 12, 13)): decreased

Ceramides
3H-PGG-Glucan Bound (specific binding) [1]: 0.02 ± 0.01 ng/μg sphingolipid

Mannan
% Control Binding ([2]; addition at 1 mg/ml): 88%

globotriaosyl ceramide [GlobotriaosylCer]
specific binding to ^3H-underivatized, aqueous soluble β(1-3)-glucan (in words) [1]: significant specific binding | 3H-PGG-Glucan Bound (specific binding) [1]: 0.84 ± 0.13 ng/μg sphingolipid

CCCCCCCCCCCCCC=CC(O)C(COC1OC(CO)C(OC2OC(CO)C(O)C(O)C2O)C(O)C1O)NC(=O)CCCCCCCCCCCCCCC (stereo not drawn) [LacCer (HLM) C16:0]
^3H-PGG-Glucan bound (specific binding) [1]: 3.31

O=C(O)CN(CCOCCOCCN(CC(=O)O)CC(=O)O)CC(=O)O [EGTA]
% Control Binding ([2]; addition at 5 mM): 87%

lactosyl ceramide
specific binding to ^3H-underivatized, aqueous soluble β(1-3)-glucan (in words) [1]: significant specific binding

CCCCCCCCCCCCCCCCCCCCCCCC(=O)NC(CO[C@@H]1O[C@H](CO)[C@@H](O[C@@H]2O[C@H](CO)[C@H](O)[C@H](O)[C@H]2O)[C@H](O)[C@H]1O)C(O)CCCCCCCCCCCCCCC (mixture of isomers) [N-Lignoceroyl-DL-dihydrolacto-cerebroside]
^3H-PGG-Glucan bound (specific binding) [1]: 0.00

CCCCCCCCCCCCC/C=C/[C@@H](O)[C@H](CO[C@@H]1O[C@H](CO)[C@@H](O[C@@H]2O[C@H](CO)[C@H](O)[C@H](O)[C@H]2O)[C@H](O)[C@H]1O)NC(=O)CCCCCCCCCCCCCCCCCCCCCCC [LacCer (HLM) C24:0]
^3H-PGG-Glucan bound (specific binding) [1]: 3.14

Glycogen
% Control Binding [2, 5]: 134%

C[C@H](CCC(=O)NCCC[N+](C)(C)CCCS(=O)(=O)[O-])[C@H]1CC[C@H]2[C@@H]3[C@H](O)C[C@@H]4C[C@H](O)CC[C@]4(C)[C@H]3C[C@H](O)[C@]12C [CHAPS]
effect of detergent pretreatment of membranes on specific binding (in words) [4]: enhancement of specific binding
